Assays:
[1] = test system: Candida albicans MTU 12021; assay: Agar dilution MIC, single and combined use; type: cell-based; settings: Candida albicans, MTU12021; single use; Sabouraud agar, 37° C., 48 hours; read-out: Minimum Inhibitory Concentration (MIC)
Procedure: (1) The effects of the combined use of Compound 1 with various imidazole antifungal agents against Candida albicans MTU 12021 strain were examined as follows. […] Then, distilled water containing 0.1% by weight of Tween 80 was added thereto to obtain drug solutions having a concentration of from 1 to 1,000 μg/ml.
(§1) 1 ml of each drug solution diluted twice was introduced into a sterilized Petri dish, and 8 ml of Sabouraud agar medium was added to prepare a agar plate. Thus, a series of agar plates for the combinations having various concentrations were prepared.
(§2) Candida albicans MTU 12021 strain cultured on a Sabouraud agar medium for 24 hours, was suspended in a saline, and a cells suspension having a concentration of 2×10^6 spores/ml was prepared by counting the number of spores by a hemacytometer. Then, 50 μl of the cells suspension was inoculated to the above agar plates by means of a microplanter (manufactured by Sakuma Seisakusho). The inoculated agar plates were cultured at 37° C. for 48 hours, whereupon the presence or absence of the growth of the strain was examined.
(§3) Culture medium: Sabouraud agar medium
(§4) Culturing condition: 37° C. for 48 hours
(§5) Strain used: Candida albicans MTU 12021

[2] = test system: Candida albicans MTU 12021; assay: Checker board method, combined use of Compound 1 with miconazole or ketoconazole; type: cell-based; also: key: +: Growth observed; -: No growth observed
Procedure: as §1, §2, §3, §4, §5

[3] = test system: Candida albicans MTU 12021; assay: Influence of combined use of Compound 1 with miconazole over the growth curve; type: cell-based; settings: 24 and 48 hours, FIG. 1
Procedure: Upon expiration of 24 hours and 48 hours, 0.1 ml of the culture medium was sampled and spread on a Sabouraud agar plate containing 0.5% of yeast extract, followed by culturing at 37° C. for 48 hours. Then, the number of colonies were counted to determine the number of survived fungi.

[4] = test system: Candida albicans MTU 12021; assay: Disk method (growth inhibition ring); type: cell-based
Procedure: (3) The effects of the combined use of Compound 1 with miconazole or ketoconazole were examined by a disk method.
Candida albicans MTU 12021 stain was mixed with a Sabouraud agar medium to have a concentration of 5×10^4 spores/ml, and 10 ml thereof was poured into a sterilized Petri dish to obtain an inoculated agar plate.
50 mg of each of Compound 1, miconazole and ketoconazole was impregnated to a disk (Toyo Filter paper of 8 mm in diameter), and the disk was placed on the inoculated agar plate, followed by culturing at 37° C. for 96 hours, whereupon the synergistic effects were evaluated based on the growth inhibition ring thereby appeared.

ICR male mice = assay: Acute toxicity, oral, mice; type: in vivo; settings: up to 5,000 mg/kg, ICR male mice of 5 weeks old
Excerpt: To examine the acute toxicity of the arylmethylamine antifungal agents used in the composition of the present invention, Compounds 1 and 2 were selected, and they were, respectively, suspended in 0.5% methyl cellulose and orally administered to ICR male mice of 5 weeks old (body weight: 26-28 g) at a dose corresponding to the body weight.

[5] = test system: Candida albicans MTU 12021; assay: Agar dilution MIC, single and combined use; type: cell-based; settings: Compound 1 combined with non-azole agents; Table 4

`CN(Cc1ccc(C(C)(C)C)cc1)Cc1cccc2ccccc12` [Compound 1, N-4-tert-butylbenzyl-N-methyl-1-naphthalenemethylamine] was tested, and the MIC [1] was over 100 µg/mL, the Growth ([2]; Compound 1 0.39 μg/ml, ketoconazole 0) was “+” and the Growth ([2]; Compound 1 0.78 μg/ml, ketoconazole 0) was “+”. The Growth ([2]; Compound 1 1.56 μg/ml, ketoconazole 0) was “+”, the Growth ([2]; Compound 1 3.13 μg/ml, ketoconazole 0) was “+” and the Growth ([2]; Compound 1 3.13 μg/ml, miconazole 0) was “+”. For the same molecule, the Growth ([2]; Compound 1 12.5 μg/ml, ketoconazole 0) was “+”, the Growth ([2]; Compound 1 12.5 μg/ml, miconazole 0) was “+” and the Growth ([2]; Compound 1 25 μg/ml, ketoconazole 0) was “+”. For the same molecule, the Growth ([2]; Compound 1 25 μg/ml, miconazole 0) was “+”, the Growth ([2]; Compound 1 50 μg/ml, ketoconazole 0) was “+” and the Growth ([2]; Compound 1 50 μg/ml, miconazole 0) was “+”. The Growth ([2]; Compound 1 100 μg/ml, ketoconazole 0) was “+”, the Growth ([2]; Compound 1 100 μg/ml, miconazole 0) was “+” and the Growth ([2]; Compound 1 0.39 + ketoconazole 0.1 μg/ml) was “+”. The Growth ([2]; Compound 1 0.39 + ketoconazole 0.2 μg/ml) was “+”, the Growth ([2]; Compound 1 0.39 + ketoconazole 0.39 μg/ml) was “+” and the Growth ([2]; Compound 1 0.39 + ketoconazole 0.78 μg/ml) was “+”. The Growth ([2]; Compound 1 0.39 + ketoconazole 1.56 μg/ml) was “+”, the Growth ([2]; Compound 1 0.39 + ketoconazole 3.13 μg/ml) was “+” and the Growth ([2]; Compound 1 0.39 + ketoconazole 12.5 μg/ml) was “+”. The Growth ([2]; Compound 1 0.39 + ketoconazole 25 μg/ml) was “-”, the Growth ([2]; Compound 1 0.39 + ketoconazole 50 μg/ml) was “-” and the Growth ([2]; Compound 1 0.39 + ketoconazole 100 μg/ml) was “-”. The Growth ([2]; Compound 1 0.78 + ketoconazole 0.1 μg/ml) was “+”, the Growth ([2]; Compound 1 0.78 + ketoconazole 25 μg/ml) was “-” and the Growth ([2]; Compound 1 0.78 + ketoconazole 50 μg/ml) was “-”. The Growth ([2]; Compound 1 0.78 + ketoconazole 100 μg/ml) was “-”, the Growth ([2]; Compound 1 1.56 + ketoconazole 0.1 μg/ml) was “+” and the Growth ([2]; Compound 1 1.56 + ketoconazole 25 μg/ml) was “-”. For the same molecule, the Growth ([2]; Compound 1 1.56 + ketoconazole 50 μg/ml) was “-”, the Growth ([2]; Compound 1 1.56 + ketoconazole 100 μg/ml) was “-” and the Growth ([2]; Compound 1 3.13 + ketoconazole 0.1 μg/ml) was “+”. For the same molecule, the Growth ([2]; Compound 1 3.13 + ketoconazole 25 μg/ml) was “-”, the Growth ([2]; Compound 1 3.13 + ketoconazole 50 μg/ml) was “-” and the Growth ([2]; Compound 1 3.13 + ketoconazole 100 μg/ml) was “-”. For the same molecule, the Growth ([2]; Compound 1 3.13 + miconazole 0.39 μg/ml) was “+”, the Growth ([2]; Compound 1 3.13 + miconazole 0.78 μg/ml) was “+” and the Growth ([2]; Compound 1 3.13 + miconazole 1.56 μg/ml) was “+”. The Growth ([2]; Compound 1 3.13 + miconazole 3.13 μg/ml) was “+”, the Growth ([2]; Compound 1 3.13 + miconazole 12.5 μg/ml) was “+” and the Growth ([2]; Compound 1 3.13 + miconazole 25 μg/ml) was “+”. For the same molecule, the Growth ([2]; Compound 1 3.13 + miconazole 50 μg/ml) was “-”, the Growth ([2]; Compound 1 3.13 + miconazole 100 μg/ml) was “-” and the Growth ([2]; Compound 1 6.25 + ketoconazole 0.1 μg/ml) was “+”. For the same molecule, the Growth ([2]; Compound 1 6.25 + ketoconazole 25 μg/ml) was “-”, the Growth ([2]; Compound 1 6.25 + ketoconazole 50 μg/ml) was “-” and the Growth ([2]; Compound 1 6.25 + ketoconazole 100 μg/ml) was “-”. For the same molecule, the Growth ([2]; Compound 1 6.25 + miconazole 0.39 μg/ml) was “+”, the Growth ([2]; Compound 1 6.25 + miconazole 0.78 μg/ml) was “+” and the Growth ([2]; Compound 1 6.25 + miconazole 1.56 μg/ml) was “+”. The Growth ([2]; Compound 1 6.25 + miconazole 3.13 μg/ml) was “+”, the Growth ([2]; Compound 1 6.25 + miconazole 12.5 μg/ml) was “+” and the Growth ([2]; Compound 1 6.25 + miconazole 25 μg/ml) was “+”. The Growth ([2]; Compound 1 6.25 + miconazole 50 μg/ml) was “-”, the Growth ([2]; Compound 1 6.25 + miconazole 100 μg/ml) was “-” and the Growth ([2]; Compound 1 12.5 + ketoconazole 0.1 μg/ml) was “+”. The Growth ([2]; Compound 1 12.5 + ketoconazole 25 μg/ml) was “-”, the Growth ([2]; Compound 1 12.5 + ketoconazole 50 μg/ml) was “-” and the Growth ([2]; Compound 1 12.5 + ketoconazole 100 μg/ml) was “-”. The Growth ([2]; Compound 1 12.5 + miconazole 0.39 μg/ml) was “+”, the Growth ([2]; Compound 1 12.5 + miconazole 0.78 μg/ml) was “+” and the Growth ([2]; Compound 1 12.5 + miconazole 50 μg/ml) was “-”. The Growth ([2]; Compound 1 12.5 + miconazole 100 μg/ml) was “-”, the Growth ([2]; Compound 1 25 + ketoconazole 0.1 μg/ml) was “+” and the Growth ([2]; Compound 1 25 + ketoconazole 25 μg/ml) was “-”. The Growth ([2]; Compound 1 25 + ketoconazole 50 μg/ml) was “-”, the Growth ([2]; Compound 1 25 + ketoconazole 100 μg/ml) was “-” and the Growth ([2]; Compound 1 25 + miconazole 0.39 μg/ml) was “+”. For the same molecule, the Growth ([2]; Compound 1 25 + miconazole 0.78 μg/ml) was “+”, the Growth ([2]; Compound 1 25 + miconazole 50 μg/ml) was “-” and the Growth ([2]; Compound 1 25 + miconazole 100 μg/ml) was “-”. The Growth ([2]; Compound 1 50 + ketoconazole 0.1 μg/ml) was “+”, the Growth ([2]; Compound 1 50 + ketoconazole 25 μg/ml) was “-” and the Growth ([2]; Compound 1 50 + ketoconazole 50 μg/ml) was “-”. The Growth ([2]; Compound 1 50 + ketoconazole 100 μg/ml) was “-”, the Growth ([2]; Compound 1 50 + miconazole 0.39 μg/ml) was “+” and the Growth ([2]; Compound 1 50 + miconazole 0.78 μg/ml) was “+”. The Growth ([2]; Compound 1 50 + miconazole 50 μg/ml) was “-”, the Growth ([2]; Compound 1 50 + miconazole 100 μg/ml) was “-” and the Growth ([2]; Compound 1 100 + ketoconazole 0.1 μg/ml) was “+”. For the same molecule, the Growth ([2]; Compound 1 100 + ketoconazole 25 μg/ml) was “-”, the Growth ([2]; Compound 1 100 + ketoconazole 50 μg/ml) was “-” and the Growth ([2]; Compound 1 100 + ketoconazole 100 μg/ml) was “-”. For the same molecule, the Growth ([2]; Compound 1 100 + miconazole 0.39 μg/ml) was “+”, the Growth ([2]; Compound 1 100 + miconazole 0.78 μg/ml) was “+” and the Growth ([2]; Compound 1 100 + miconazole 50 μg/ml) was “-”. The Growth ([2]; Compound 1 100 + miconazole 100 μg/ml) was “-”, the “influence over growth curve” value [3] was “fungistatic or fungicidal effects were enhanced” and the “effect of combined use with miconazole on inhibitory ring” value ([4]; Compound 1 disk on periphery of incomplete inhibitory ring of miconazole disk, FIG. 2) was “a portion of the incomplete inhibitory ring is completely inhibited”. For the same molecule, the “effects of combined use, Compound 1 with ketoconazole” value ([4]; FIG. 3) was “remarkable effects of the combined use”, the death (ICR male mice) was “no instance of death” and the “synergistic effects of combined use with non-azole antifungal agents” value [5] was “no synergistic effects were observed”.
